Test results as given in patent US20170023576A1, “NOTCH3 ANTIBODIES AND USES THEREOF” (ONCOMED PHARMACEUTICALS, INC., priority 2014, published 2017).

Legend:
[1] = system: OMP-PN08 pancreatic tumor; assay: Pancreatic tumor xenograft growth in vivo, OMP-PN08; design: species or system human; settings: OMP-PN8 tumors in NOD/SCID mice; antibody 40 mg/kg every other week, gemcitabine 20 mg/kg weekly
Description: (§1) Ten primary patient-derived pancreatic tumor xenografts were tested for efficacy in response to anti-Notch2/3 antibody OMP-59R5 in combination with gemcitabine. These tumors were OMP-PN04, OMP-PN07, OMP-PN08, OMP-PN11, OMP-PN13, OMP-PN16, OMP-PN17, OMP-PN21, OMP-PN23, and OMP-PN25.
In one representative example, OMP-PN8 pancreatic tumor cells (2×10^4) were injected into NOD/SCID mice. Tumors were allowed to grow for 22 days until they reached an average volume of 125 mm^3. Tumor-bearing mice were randomized into 4 groups and treated with control antibody, anti-NOTCH2/3 antibody OMP-59R5, gemcitabine, or a combination of OMP-59R5 and gemcitabine. Antibodies were dosed every other week at 40 mg/kg. Gemcitabine was dosed weekly at 20 mg/kg. Tumor growth was monitored and tumor volumes were measured with electronic calipers on the indicated days post-treatment.

[2] = system: OMP-PN11 pancreatic tumor; assay: Pancreatic tumor xenograft growth in vivo, OMP-PN11; design: species or system human; settings: OMP-PN11 tumors in NOD/SCID mice; antibody 40 mg/kg every other week, gemcitabine 20 mg/kg weekly
Description: as §1
In a second representative example, OMP-PN11 pancreatic tumor cells (5×10^4) were injected into NOD/SCID mice. Tumors were allowed to grow for 21 days until they reached an average volume of 120 mm^3. Tumor-bearing mice were randomized into 4 groups and treated with control antibody, OMP-59R5, gemcitabine, or a combination of OMP-59R5 and gemcitabine. Antibodies were dosed every other week at 40 mg/kg. Gemcitabine was dosed weekly at 20 mg/kg. […] Tumor growth was monitored and tumor volumes were measured with electronic calipers on the indicated days post-treatment.

## OMP-59R5: anti-NOTCH2/3 therapeutic antibody; heavy chain variable region SEQ ID NO:18, light chain variable region SEQ ID NO:26
[1]
  tumor growth (FIG. 1A): significantly inhibited tumor growth
[2]
  tumor growth (FIG. 1B): no effect
